The compounds below were run against T1, metabotropic glutamate receptors mG1uR2 (Rattus norvegicus, UniProt P31421) (assay: Effect of Test Compounds on cAMP Accumulation (inhibition of Forskolin-stimulated cAMP accumulation in CHO cells stably expressing mGluR2)). Conditions: not given.
T1 construct: expressed in transfected cells
Format: cell-based
Protocol: After the medium was replaced with an L-glutamine free medium, they were cultured for 4 hours, and the supernatant liquid was aspirated. After adding 150 μl of PBS(+)-IBMX (10 mM PBS(-), 1 mM MgC12,1 mM CaCl2, 1 mM IBMX), incubation was conducted at 37° C. under the presence of 5% CO2 for 20 minutes. Once again the supernatant liquid was suctioned off, 60 μl of 10^-5 M Forskolin and PBS (+)-IBMX containing the specimens listed in Table 1 between 10^-10 and 10^-4 M were added, incubation was carried out for 15 minutes at 37° C. under the presence of 5% CO2, and a study was carried out for the inhibitory effect of the agonists on the Forskolin stimulation cAMP accumulation quantity [for control, the conditions were set to Forskolin with no addition of the compounds (Tanabe et al., Neuron, 8, 169-179 (1992))]. The reactions were halted by adding 100 μl of ice-cooled ethanol, the entire quantity of the supernatant liquid was collected in a separate plate, then was dried up at normal temperature with an evaporator, and was kept at -20° C. In the dried-up samples, the quantity of cAMP was measured using a cAMP EIA kit (from the Amasham company). The control value was subtracted from each cAMP quantity.

T1 sequence (P31421 19-872): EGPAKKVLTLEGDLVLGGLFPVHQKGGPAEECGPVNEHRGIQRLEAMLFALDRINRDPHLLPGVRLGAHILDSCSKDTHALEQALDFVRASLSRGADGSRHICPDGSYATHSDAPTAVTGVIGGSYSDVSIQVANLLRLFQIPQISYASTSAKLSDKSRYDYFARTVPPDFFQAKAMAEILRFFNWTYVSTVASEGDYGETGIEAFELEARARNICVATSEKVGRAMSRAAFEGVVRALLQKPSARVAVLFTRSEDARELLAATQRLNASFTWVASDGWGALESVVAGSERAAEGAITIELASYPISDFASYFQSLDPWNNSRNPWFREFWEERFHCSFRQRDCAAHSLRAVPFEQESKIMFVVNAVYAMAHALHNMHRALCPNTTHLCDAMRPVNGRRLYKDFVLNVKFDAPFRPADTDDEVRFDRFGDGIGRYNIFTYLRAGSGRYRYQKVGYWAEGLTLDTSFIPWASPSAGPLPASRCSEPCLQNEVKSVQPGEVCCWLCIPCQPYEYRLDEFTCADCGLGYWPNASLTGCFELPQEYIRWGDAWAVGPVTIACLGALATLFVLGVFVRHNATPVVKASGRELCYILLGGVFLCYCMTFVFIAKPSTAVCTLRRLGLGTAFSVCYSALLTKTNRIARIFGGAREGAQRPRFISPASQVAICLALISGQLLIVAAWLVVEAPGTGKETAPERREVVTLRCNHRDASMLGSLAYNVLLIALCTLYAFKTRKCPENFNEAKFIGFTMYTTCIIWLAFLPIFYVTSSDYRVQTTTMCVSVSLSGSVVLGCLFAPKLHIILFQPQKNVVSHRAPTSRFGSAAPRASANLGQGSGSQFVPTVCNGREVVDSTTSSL

With N[C@@]1(C(=O)O)CC[C@@H](C(=O)O)C1 [(1s,3R)-ACPD, (1S, 3R)-1-aminocyclopentane-1,3-dicarboxylic acid, reference compound] as the compound, how does the IC50 read?
Its IC50 is 1500 nM.

Same assay, conditions: CHO cells stably expressing mGluR2; 10^-5 M Forskolin; specimens 10^-10 to 10^-4 M; 15 minutes at 37° C.; cAMP EIA kit; agonist

For N[C@@]1(C(=O)O)C[C@H](O)[C@@H]2[C@H]1[C@@]2(F)C(=O)O (racemic) [Comp. 5, (1RS, 2SR, 4SR, 5SR, 6SR)-2-amino-6-fluoro-4-hydroxybicyclo [3.1.0]hexane-2,6-dicarboxylic acid], which IC50 is on record?
The IC50 was 19.6 nM.

With N[C@@]1(C(=O)O)CC[C@@H]2[C@H]1[C@@]2(F)C(=O)O (racemic) [Comp. 1, (1RS, 2SR, 5RS, 6RS)-2-amino-6-fluorobicyclo[3.1.0]hexane-2,6-dicarboxylic acid] as the compound, how does the IC50 read?
Its IC50 is 34.2 nM.

With N[C@@]1(C(=O)O)CC(=O)[C@@H]2[C@H]1[C@@]2(F)C(=O)O (racemic) [Comp. 3, (1RS, 2SR, 5SR, 6SR)-2-amino-6-fluoro-4-oxobicyclo[3.1.0]hexane-2,6-dicarboxylic acid] as the compound, how does the IC50 read?
Its IC50 is 1.26 nM.

How did the IC50 turn out when N[C@H](C(=O)O)[C@H]1C[C@@H]1C(=O)O [L-CCG-I, (2S, 1'S, 2'S)-2-(carboxycyclopropyl)glycine, reference compound] was run?
Its IC50 is 121 nM.

With N[C@H](C(=O)O)C1[C@@H](C(=O)O)[C@@H]1C(=O)O (stereo partly drawn) [DCG IV, (2S, 1'R, 2'R, 3'R)-2-(2', 3'-dicarboxycycloproyl)glycine, reference compound] as the compound, how does the IC50 read?
Its IC50 is 98.3 nM.

How did the IC50 turn out when N[C@@]1(C(=O)O)CC[C@@H]2[C@H]1[C@@]2(F)C(=O)O (single isomer, unassigned) [Comp. 2, (-)-(1R*, 2S*, 5R*, 6R*)-2-amino-6-fluorobicyclo[3.1.0]hexane-2,6-dicarboxylic acid] was run?
The IC50 was 16.6 nM.

N[C@@]1(C(=O)O)CC(=O)[C@@H]2[C@H]1[C@@]2(F)C(=O)O (single isomer, unassigned) [Comp. 4, (+)-(1R*, 2S*, 5S*, 6S*)-2amino-6-fluoro-4-oxobicyclo [3.1.0]hexane-2,6-dicarboxylic acid] was tested. Which IC50 did it give?
Its IC50 is 0.66 nM.

From patent US6333428A, “6-fluorobicyclo[3.1.0]hexane derivatives” (Taisho Pharmaceutical Co., Ltd., priority 1998, dated 2001)
